Source: PubChem BioAssay (NCI)
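A five-concentration, 48-hour dose response in 96-well plates underlies each endpoint, interpolated linearly between surrounding concentrations. Definition used: TGI = concentration required for complete inhibition of growth.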

How the values were obtained:
Experiment in all cases: NCI tumour cell line growth inhibition, 48 h
DMS 273 small cell lung = test system: DMS 273 small cell lung
DLD-1 colon = test system: DLD-1 colon
M19-MEL melanoma = test system: M19-MEL melanoma
DMS 114 small cell lung = test system: DMS 114 small cell lung
XF 498 CNS = test system: XF 498 CNS
KM20L2 colon = test system: KM20L2 colon
SNB-78 CNS = test system: SNB-78 CNS
LXFL 529 NSCLC = test system: LXFL 529 NSCLC
RXF-631 renal = test system: RXF-631 renal
P388 leukemia = test system: P388 leukemia
SN12K1 renal = test system: SN12K1 renal
P388/ADR leukemia = test system: P388/ADR leukemia

SMILES	TGI (DMS 273 small cell lung)	TGI (DLD-1 colon)	TGI (M19-MEL melanoma)	TGI (DMS 114 small cell lung)	TGI (XF 498 CNS)	TGI (KM20L2 colon)	TGI (SNB-78 CNS)	TGI (LXFL 529 NSCLC)	TGI (RXF-631 renal)	TGI (P388 leukemia)	TGI (SN12K1 renal)	TGI (P388/ADR leukemia)
NS(=O)(=O)C1CCCCC1C(=O)NNC(=O)C(=O)Nc1nc(=S)[nH][nH]1 (stereo not given)	> 100 µM	> 100 µM	> 100 µM	> 100 µM	> 100 µM	> 100 µM	> 100 µM	> 100 µM				
COc1ccc(Sc2ccccc2[N+](=O)[O-])cc1	> 100 µM	> 100 µM	> 100 µM				98.4 µM	> 100 µM	> 100 µM			
COC(=O)C1=C(C)C(=O)C2(CCCCCC2C(=O)OC)C1 (stereo not given)	> 100 µM	> 100 µM	> 100 µM	> 100 µM		> 100 µM	> 100 µM	> 100 µM				
Nc1cc(O)c2cc(N=Nc3ccc(N=Nc4ccc(N=Nc5ccc6cc(S(=O)(=O)O)cc(S(=O)(=O)O)c6c5)c5ccccc45)c4cc(S(=O)(=O)O)ccc34)c(S(=O)(=O)O)cc2c1	> 100 µM	> 100 µM	> 100 µM		> 100 µM		> 100 µM			> 100 µM	> 100 µM	
Cc1ccc(C)c(C(=O)CC2OC(O)C(Cl)C2Cl)c1 (stereo not given)	> 100 µM	34.4 µM	> 100 µM	> 100 µM	> 100 µM	> 100 µM	> 100 µM	32.5 µM				
Cn1c(=O)c(C#N)c(O)c2cc3ccccc3nc21	> 100 µM	> 100 µM	> 100 µM	> 100 µM	> 100 µM		> 100 µM	> 100 µM				
CCCCCCCCCCCC1=C(O)C(=O)C=C(O)C1=O	15.7 µM	51.9 µM		11.9 µM		35.4 µM	149 µM				30.3 µM	250 µM
